Measured values as given in the NIST ThermoML archive (doi:10.1021/je030191w).
± gives the expanded uncertainty stated by the source.

Key:
[1] = 101 kPa, Liquid
[2] = xn = mol fraction of the nth substance listed; details: 101 kPa, Liquid, x1 = 1

CCn1cc[n+](C)c1.F[B-](F)(F)F [1-ethyl-3-methylimidazolium tetrafluoroborate]
[1]
Details	mass density [kg/m3]	viscosity [mPa·s]
293.15 K	1340.7 ± 50	45.29 ± 2.9
298.15 K	1336.7 ± 50	37.19 ± 2.4
303.15 K	1332.9 ± 50	31.36 ± 2.1
308.15 K	1329.6 ± 50	25.56 ± 1.7
313.15 K	1325.9 ± 50	21.54 ± 1.5
318.15 K	1322.2 ± 50	18.84 ± 1.3
323.15 K	1319.5 ± 50	15.9 ± 1.1

O [water] + CCn1cc[n+](C)c1.F[B-](F)(F)F
[2]
Details	mass density [kg/m3]	viscosity [mPa·s]
293.15 K	–	1.002 ± 0.099
298.15 K	–	0.89 ± 0.089
303.15 K	–	0.798 ± 0.081
308.15 K	–	0.719 ± 0.075
313.15 K	–	0.653 ± 0.069
318.15 K	990.1 ± 50	0.599 ± 0.064
323.15 K	988 ± 50	0.547 ± 0.06
